Experiments:
Type in all cases: cell-based
test cells = test: screening test for teratogenic activity with cells cultured in amniotic fluid; settings: tests on two teratogens in the mouse
Description: According to my invention I provide a process for screening a compound for teratogenic activity comprising administering the compound being screened to a test animal, removing amniotic fluid from the test animal, using the amniotic fluid removed as part or all of a cell culture medium, and measuring the effect on cell properties of cells grown in the culture medium containing the amniotic fluid from the test animal as compared with the use of amniotic fluid from an otherwise identical control animal that has not had the compound being screened administered to it.
(1) Amniotic fluid is used as cell culture medium or as an additive to a standardised cell culture medium in order to test the substance as processed by the maternal organism. Amniotic fluids either from animals of diverse genotype or of selected genotypes, as required, are pooled. […]
(2) A standardised cell suspension is innoculated into cultures and grown during log phase in the medium containing amniotic fluid from a control or test series as described above. […] Lens epithelium has been used since I have published evidence that quantitative regulation of specific syntheses is of especial importance in this orgen and the assay system described in (3) below detects changes in mitotic rate, cell mass, and growth conditions, cell surface modification and genetically determined pathology. […]

lens epithelial cells [1] = test: morphology of lens epithelial cells grown in amniotic fluid from injected mice; settings: amniotic fluid from mice injected once s.c. at 12-15 days gestation, harvested 1-2 h after; diluted to 50% with culture medium; two days' culture
Description: Mice of numerous genotypes were taken from amongst all the more prolific strains available from the Institute of Animal Genetics Mouse House (Mouse News Letter, 1974). They were mated and the pregnancies dated by vaginal plug. They were injected once, subcutaneously, with a teratogen, between 12-15 days of gestation in order to obtain a large volume of clear amniotic fluid. 1-2 hours after the injection the mice were killed by cervical dislocation, the uteri removed and the amniotic fluid harvested under sterile conditions, passed through a Millex filter and stored at -20°C. Control amniotic fluids were obtained from uninjected mice of a similar range of genotypes and stages of gestation. Mice were injected with double the teratogenic doses used for 6-aminonicotinamide by Pinsky and Fraser (Biol. Neonat., 1,106-112 (1959)) and for sodium acetyl salicylate by Larsson and Erickson (Acta. Paed. Scand., 55, 569-576, )1976)), but the amniotic fluids were diluted to 50% with culture medium for use, thus giving a final concentration similar to that used by these authors. Five batches of pooled amniotic fluid of each kind were prepared in this way and tested in separate culture experiments. […]

lens epithelial cells [2] = test: protein profile (accumulated protein, stained isoelectric focussing gels) of lens epithelial cells grown in amniotic fluid from injected mice; settings: diluted to 50% with culture medium; for changes in the protein profile (bands of stained gels): Coomassie Blue stained gels, densitometry
Description: Similar densitometry is made of the autoradiograph of the gels. Each analysis can be done on a culture grown from a cell suspension of as little as 1-4.5 × 10^5 cells, but can be scaled up or down as required.
Mice of numerous genotypes were taken from amongst all the more prolific strains available from the Institute of Animal Genetics Mouse House (Mouse News Letter, 1974). They were mated and the pregnancies dated by vaginal plug. They were injected once, subcutaneously, with a teratogen, between 12-15 days of gestation in order to obtain a large volume of clear amniotic fluid. 1-2 hours after the injection the mice were killed by cervical dislocation, the uteri removed and the amniotic fluid harvested under sterile conditions, passed through a Millex filter and stored at -20°C. Control amniotic fluids were obtained from uninjected mice of a similar range of genotypes and stages of gestation. Mice were injected with double the teratogenic doses used for 6-aminonicotinamide by Pinsky and Fraser (Biol. Neonat., 1,106-112 (1959)) and for sodium acetyl salicylate by Larsson and Erickson (Acta. Paed. Scand., 55, 569-576, )1976)), but the amniotic fluids were diluted to 50% with culture medium for use, thus giving a final concentration similar to that used by these authors. Five batches of pooled amniotic fluid of each kind were prepared in this way and tested in separate culture experiments.
Cultures of dissociated lens epithelial cells were prepared according to Okada, Eguchi and Takeichi (Dev. Growth Diffn., 13,323-326 (197l)), and plated at 4.5 × 10^5 cells per dish in 3.5 ml Earles MEM (Biocult) containing 6% foetal calf serum (Gibco). The medium was changed at 2 days, and after 4 days, when these cells were in log phase, the medium was replaced by 1 ml of medium and 1 ml of amniotic fluid. After two further days the cells were labelled for 4 to 5 hours with ^14 C mixed amino acids (Amersham) at 20 μCi/ml. The cultures were washed several times in Hanks solution, harvested with a miniature plastic scraper and taken up into a drop of 8M urea containing 10 mM β-mercaptoethanol. The drop was frozen and thawed three times to liberate the cell contents. When required, the living cells were examined with a Gilbert and Siebert inverted phase microscope.
Polyacrylamide gels containing ampholines according to Wrigley (Science Tools, 15, 17-23, (1968)) were modified to contain 6M urea, 10mM β-mercaptoethanol, and an ampholine mixture giving a gradient from pH 3 to 10, flattened in the region of 4.5 to 7.0. Such gels give especially high resolution for crystallins and are now routinely used in my laboratory. 20 μl of cell preparation was added to each gel which was electrofocussed overnight according to Wrigley (loc. cit.). […]

## NC(=O)c1ccc(N)nc1 [6-aminonicotinamide]
Test cells
  discrimination of treated cells from control cells: distinguish reliably and specifically between the cells treated by each of these teratogens, and control cells
Lens epithelial cells [1]
  cell outline / morphology: modified cell outline
Lens epithelial cells [2]
  other quantitative changes in the protein profile: some other, less striking quantitative changes were also recorded
  changes in the protein profile (bands of stained gels): one band being missing and one exaggerated

## CC(=O)Oc1ccccc1C(=O)O [sodium acetyl salicylate]
Test cells
  discrimination of treated cells from control cells: distinguish reliably and specifically between the cells treated by each of these teratogens, and control cells
Lens epithelial cells [1]
  cell outline / morphology: normal in morphology
Lens epithelial cells [2]
  other quantitative changes in the protein profile: Other quantitative changes were also observed
  changes in the protein profile (bands of stained gels): lacking in the band which was enhanced by 6-aminonicotinamide treatment

— patent publication US4129643A, “Method for rapid screening of teratogenic agents” (priority 1976, dated 1978)
